Common to all, as to format: cell-based
In assay [1] the test system is Staphylococcus epidermidis (ATCC 12228). Kind of assay: Determination of the bacteriostatic action, microbe count after incubation. The settings on record: for Final microbe count: sample 2.0% in water/ethanol (12% of ethanol), mixed 1:1 with suspension, 35° C., 24 h or 48 h, initial count 1.6 × 10^4. As to the method:
(§1) For sample preparation, substances I-1 and I-5 being investigated are homogeneously dispersed in an amount of 2.0% in a water/ethanol mixture (12% of ethanol) (=sample). A suspensions of Staphylococcus epidermidis (ATCC 12228) having an optical density of 1.0 in CASO broth (Merck 1.05459) is diluted 1:10000 with CASO broth. 500 μl of sample are added to […] of microorganism suspension, and the mixture is incubated at 35° C. for 24 h or 48 h. After the incubation, the test batches are diluted to −6 in 10 unit steps, and 0.1 ml of each is plated-out on CASO agar (Merck 1.05458) and incubated at 35° C. for 24 h.
(§2) In order to determine the initial microbe count, 0.1 ml of the bacteria suspension used are plated-out on CASO agar (Merck 1.05458) and incubated at 35° C. for 24 h.
(§3) The colonies are subsequently counted, and the microbe count per ml is determined compared with the negative control (12% of ethanol in water).
(§4) The concentrations indicated are the final use concentrations. In order to prepare the stock solution, double the final concentration are prepared in the solvent indicated. This is subsequently diluted 1:2 with the corresponding microbe suspension. In the case of Aspergillus brasiliensis, the microbe count determination is exceptionally carried out after 48 h, in the case of Malassezia furfur after 72 h.

Assay [2] has as its system Propionibacterium acnes (ATCC 6919). Kind of assay: Microbe count after incubation, carried out in accordance with Example 1. The settings on record: for Δlog: t24 h vs t0; for Final microbe count: as Example 1, sample 2.0% in water/ethanol (12% of ethanol), initial count 8.3 × 10^4. The procedure: as §1, §2, §3
The experiment is carried out in accordance with Example 1. Instead of the action on Staphylococcus epidermidis, the action of substances I-1 and I-5 on the test microbe Propionibacterium acnes is investigated.
as §4

For a further assay, the system named is Corynebacterium xerosis. The experiment in a line: Microbe count after incubation (Example 3). The settings on record: 0.5% final conc., H2O. As to the method:
as §1, §2, §3, §4

For the next assay, the system named is Staphylococcus aureus. The experiment in a line: Microbe count after incubation (Example 3). To be noted: 1.0% final conc., H2O (12% of ethanol). As to the method: as §1, §2, §3, §4
In the next assay the test system is Salmonella enterica. The experiment in a line: Microbe count after incubation (Example 3). The settings on record: 0.5% final conc., H2O. As to the method: as §1, §2, §3, §4
For another assay, the system named is Malassezia furfur. The experiment in a line: Microbe count after incubation (Example 3). The settings on record: 1.0% final conc., H2O. As to the method: as §1, §2, §3, §4
A further assay concerns Candida albicans. The experiment in a line: Microbe count after incubation (Example 3). The settings on record: 1.0% final conc., H2O (12% of ethanol). The procedure:
as §1, §2, §3, §4

The next assay deals with Aspergillus brasiliensis. The experiment in a line: Microbe count after incubation (Example 3). To be noted: 1.0% final conc., H2O (12% of ethanol). As to the method: as §1, §2, §3, §4

Regarding `OC1CCC(C(O)C2CCCCC2)CC1` (stereo not shown) [Substance I-1, 4-(cyclohexylhydroxymethyl)cyclohexanol], the “Microbe count t24 h” value in assay [1] (0.5% final conc., H2O (12% of ethanol), t0 1.6 × 10^4) is recorded as 7.4 × 10^3; in assay [2] (0.25% final conc., H2O, t0 5.4 × 10^5) it was 2.4 × 10^5; in assay [2] (0.5% final conc., H2O (12% of ethanol), t0 8.3 × 10^4), 0; in the assay on Corynebacterium xerosis (t0 1.0 × 10^6), 1.3 × 10^6; in the assay on Staphylococcus aureus (t0 7.2 × 10^4), 0; in the assay on Salmonella enterica (t0 1.0 × 10^6) it was 5.1 × 10^6. Also, the “Microbe count t24 h” value in the assay with Malassezia furfur (count after 72 h, t0 4.0 × 10^2) is 0; in the assay on Candida albicans (t0 6.0 × 10^3), 0; in the assay with Aspergillus brasiliensis (count after 48 h, t0 8.0 × 10^2) it was 0. In addition, the Δlog was −0.34 in assay [1] (0.5% final conc., H2O (12% of ethanol), t24 h vs t0); −0.35 in assay [2] (0.25% final conc., H2O); −4.92 in assay [2] (0.5% final conc., H2O (12% of ethanol)); “+0.11” in the assay with Corynebacterium xerosis (t24 h vs t0); −4.86 in the assay with Staphylococcus aureus (t24 h vs t0); “+0.71” with Salmonella enterica (t24 h vs t0). Further, the Δlog is −2.60 with Malassezia furfur (count after 72 h vs t0), −3.78 in the assay on Candida albicans (t24 h vs t0) and −2.90 in the assay with Aspergillus brasiliensis (count after 48 h vs t0). Moreover, the Final microbe count was 7.4 × 10^3 CFU/ml in assay [1] and 0 CFU/ml in assay [2].
In the case of `COC1CCC(C(O)C2CCCCC2)C(O)C1` (stereo not shown) [Substance I-5, 2-(cyclohexylhydroxymethyl)-5-methoxy-cyclohexanol], the Final microbe count is listed as 7.0 × 10^3 CFU/ml in assay [1] and 0 CFU/ml in assay [2].

The values above are taken from US9181161B2, “Use of dicyclohexylmethanol derivatives having antimicrobial properties” (MERCK PATENT GmbH, priority 2012, dated 2015).
